From publication doi:10.1101/2023.12.19.571805v1 (biorxiv, 2023)
*1 amine or outer side, *2 acyl side, *3 side chain or, on linkers, in order; H or OH if unused. Where a SMILES comes first, the peptide text is derived from it. Bridges are numbered along the chain shown (N, C = ends). Roman numbers before positions name the chains, in order. [ ]: non-standard residue; d: D form. Actinocin(9to1) = Cc1c2oc3c(C)ccc(C(=O)[*:1])c3nc-2c(C(=O)[*:2])c(N)c1=O; NMeV = CN[C@H](C(=O)O)C(C)C; Sar = CNCC(=O)O

Target: T1, PhoR (PhoR-GFP) (Mycobacterium tuberculosis, UniProt P71815)
T1 sequence (P71815 181-485 limits assumed): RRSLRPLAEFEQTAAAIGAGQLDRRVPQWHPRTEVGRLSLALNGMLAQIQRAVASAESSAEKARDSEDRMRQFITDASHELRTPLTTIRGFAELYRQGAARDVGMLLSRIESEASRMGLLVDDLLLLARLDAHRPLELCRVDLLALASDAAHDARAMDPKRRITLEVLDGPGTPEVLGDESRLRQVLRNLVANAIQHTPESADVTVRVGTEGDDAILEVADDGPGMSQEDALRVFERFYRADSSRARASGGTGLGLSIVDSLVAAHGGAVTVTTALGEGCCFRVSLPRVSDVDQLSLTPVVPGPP
Experiment: radioactive dot-blot autophosphorylation assay
Type: biochemical
Settings: read-out: % inhibition at 10 μM

For Cc1c2oc3c(C)ccc(C(=O)N[C@@H]4C(=O)N[C@H](C(C)C)C(=O)N5CCC[C@H]5C(=O)N(C)CC(=O)N(C)[C@@H](C(C)C)C(=O)O[C@@H]4C)c3nc-2c(C(=O)N[C@@H]2C(=O)N[C@H](C(C)C)C(=O)N3CCC[C@H]3C(=O)N(C)CC(=O)N(C)[C@@H](C(C)C)C(=O)O[C@@H]2C)c(N)c1=O [Actinomycin D] (I: T[dV]P[Sar][NMeV] / II: T[dV]P[Sar][NMeV]; ester I:1-I:C, II:1-II:C; linker I:N-II:N via Actinocin(9to1)), the inhibition at 10 µM was greater than 50%.
